7 molecules from ChEMBL document CHEMBL1153461, “Inhibitory effects of flavonoids isolated from Fragaria ananassa Duch on IgE-mediated degranulation in rat basophilic leukemia RBL-2H3” (Bioorg Med Chem, 2009) can be followed below.

For assay [1], the target named is T1, 1-phosphatidylinositol 4,5-bisphosphate phosphodiesterase gamma-2 (Rattus norvegicus) (UniProt P24135).
T1 sequence (whole entry): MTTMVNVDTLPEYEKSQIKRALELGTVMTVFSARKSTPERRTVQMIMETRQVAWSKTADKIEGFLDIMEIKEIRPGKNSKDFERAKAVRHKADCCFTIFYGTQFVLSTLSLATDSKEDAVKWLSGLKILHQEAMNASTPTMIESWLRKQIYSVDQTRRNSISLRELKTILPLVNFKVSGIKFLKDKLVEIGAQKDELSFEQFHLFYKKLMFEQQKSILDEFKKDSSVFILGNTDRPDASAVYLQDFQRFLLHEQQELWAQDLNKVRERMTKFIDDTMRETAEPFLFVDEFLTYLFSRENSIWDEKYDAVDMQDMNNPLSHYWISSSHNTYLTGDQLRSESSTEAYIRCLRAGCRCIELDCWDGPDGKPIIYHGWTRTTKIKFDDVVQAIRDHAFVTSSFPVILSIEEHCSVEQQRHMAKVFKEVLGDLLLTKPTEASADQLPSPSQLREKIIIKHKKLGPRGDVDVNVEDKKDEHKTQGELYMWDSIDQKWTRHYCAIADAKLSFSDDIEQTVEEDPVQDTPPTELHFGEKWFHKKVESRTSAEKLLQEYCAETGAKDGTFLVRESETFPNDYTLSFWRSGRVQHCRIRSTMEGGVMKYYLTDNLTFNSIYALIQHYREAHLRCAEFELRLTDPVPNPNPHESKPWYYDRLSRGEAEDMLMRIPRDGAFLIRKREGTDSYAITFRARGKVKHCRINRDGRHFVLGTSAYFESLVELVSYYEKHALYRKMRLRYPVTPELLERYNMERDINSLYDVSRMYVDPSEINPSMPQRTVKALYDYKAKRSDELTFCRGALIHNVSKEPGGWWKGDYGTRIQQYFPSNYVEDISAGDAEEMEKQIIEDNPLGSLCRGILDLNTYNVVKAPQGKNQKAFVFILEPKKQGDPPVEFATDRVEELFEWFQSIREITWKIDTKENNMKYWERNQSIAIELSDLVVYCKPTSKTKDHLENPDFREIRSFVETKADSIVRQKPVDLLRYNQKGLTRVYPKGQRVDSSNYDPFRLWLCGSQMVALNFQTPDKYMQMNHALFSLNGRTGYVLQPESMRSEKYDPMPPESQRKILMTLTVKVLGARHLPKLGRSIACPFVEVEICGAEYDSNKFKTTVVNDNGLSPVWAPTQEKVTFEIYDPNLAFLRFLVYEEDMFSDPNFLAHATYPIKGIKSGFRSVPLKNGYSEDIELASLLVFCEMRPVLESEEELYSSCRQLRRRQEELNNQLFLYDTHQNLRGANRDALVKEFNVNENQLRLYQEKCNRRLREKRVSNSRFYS
Nature of the assay: Inhibition of PLCgamma2 phosphorylation in DNP-BSA-stimulated rat RBL2H3 cells by Western blotting. Format: cell-based. As to conditions: RBL-2H3. In general terms: Immunoblotting shows a protein as a band on a membrane.

Assay [2] deals with RBL-2H3. Nature of the assay: Inhibition of ERK in DNP-BSA-stimulated rat RBL2H3 cells assessed as reduction in cPLA2 phosphorylation by Western blotting. Format: cell-based.
For assay [3], the system named is Radical scavenging activity. Nature of the assay: Antioxidant activity assessed as radical DPPH scavenging activity. Format: functional. Background: The DPPH test is a chemical assay of radical scavenging.
Assay [4] relates to RBL-2H3. The assay can be described thus: Antiallergic activity in IgE-sensitized DNP-BSA-stimulated rat RBL2H3 cells assessed as decrease in intracellular Ca2+ level by fluorimetry. It counts as functional, cell-based.
In assay [5] the test system is RBL-2H3. Nature of the assay: Antiallergic activity in IgE-sensitized rat RBL2H3 cells assessed as inhibition of A-23187-stimulated beta hexaminidase release relative to control. Format: functional, cell-based.
Assay [6] has as its system RBL-2H3. The assay can be described thus: Antiallergic activity in IgE-sensitized rat RBL2H3 cells assessed as inhibition of DNP-BSA-stimulated beta hexaminidase release relative to control. It counts as functional, cell-based.
For assay [7], the system named is RBL-2H3. Nature of the assay: Inhibition of ERK phosphorylation in DNP-BSA-stimulated rat RBL2H3 cells by Western blotting. Format: cell-based.
Assay [8] concerns the target T2, 1-phosphatidylinositol 4,5-bisphosphate phosphodiesterase gamma-1 (Rattus norvegicus) (UniProt P10686).
T2 sequence (whole entry): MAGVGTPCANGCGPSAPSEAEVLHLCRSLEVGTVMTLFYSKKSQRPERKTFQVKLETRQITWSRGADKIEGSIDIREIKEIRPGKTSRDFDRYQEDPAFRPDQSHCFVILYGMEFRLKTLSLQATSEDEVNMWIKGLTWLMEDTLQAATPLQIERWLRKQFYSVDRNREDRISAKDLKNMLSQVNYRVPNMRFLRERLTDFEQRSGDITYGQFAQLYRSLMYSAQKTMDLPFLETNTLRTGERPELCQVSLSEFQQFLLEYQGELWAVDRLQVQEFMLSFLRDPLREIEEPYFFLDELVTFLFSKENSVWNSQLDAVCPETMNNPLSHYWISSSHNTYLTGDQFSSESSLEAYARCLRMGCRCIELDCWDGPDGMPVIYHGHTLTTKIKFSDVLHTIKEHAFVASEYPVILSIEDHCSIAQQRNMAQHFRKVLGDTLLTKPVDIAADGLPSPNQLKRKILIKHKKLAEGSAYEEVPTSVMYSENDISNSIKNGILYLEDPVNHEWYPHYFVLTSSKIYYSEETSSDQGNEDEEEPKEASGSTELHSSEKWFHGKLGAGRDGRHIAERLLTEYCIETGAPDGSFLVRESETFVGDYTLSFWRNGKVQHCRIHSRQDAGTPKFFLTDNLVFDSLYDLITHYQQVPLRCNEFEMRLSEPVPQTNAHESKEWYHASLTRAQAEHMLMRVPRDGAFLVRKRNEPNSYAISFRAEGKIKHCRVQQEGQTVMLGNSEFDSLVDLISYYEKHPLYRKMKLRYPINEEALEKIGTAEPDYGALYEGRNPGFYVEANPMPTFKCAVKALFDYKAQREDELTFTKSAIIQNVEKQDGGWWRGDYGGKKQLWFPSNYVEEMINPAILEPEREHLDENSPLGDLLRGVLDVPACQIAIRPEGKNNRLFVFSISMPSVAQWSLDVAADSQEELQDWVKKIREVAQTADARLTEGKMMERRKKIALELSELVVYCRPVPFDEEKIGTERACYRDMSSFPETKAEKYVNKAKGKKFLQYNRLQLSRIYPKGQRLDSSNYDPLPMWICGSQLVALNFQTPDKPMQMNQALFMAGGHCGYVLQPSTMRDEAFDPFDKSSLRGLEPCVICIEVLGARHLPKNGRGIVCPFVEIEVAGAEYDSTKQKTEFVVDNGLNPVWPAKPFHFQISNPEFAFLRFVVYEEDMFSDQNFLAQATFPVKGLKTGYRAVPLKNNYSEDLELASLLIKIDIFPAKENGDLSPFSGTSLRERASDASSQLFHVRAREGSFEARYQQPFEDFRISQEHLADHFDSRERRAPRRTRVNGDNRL
Nature of the assay: Inhibition of PLCgamma1 phosphorylation in DNP-BSA-stimulated rat RBL2H3 cells by Western blotting. It counts as cell-based. As to conditions: RBL-2H3.

Assay [9] concerns RBL-2H3. Nature of the assay: Inhibition of p38 phosphorylation in DNP-BSA-stimulated rat RBL2H3 cells by Western blotting. It counts as cell-based.
Assay [10] concerns the target Tyrosine-protein kinase SYK (Rattus norvegicus) (UniProt Q64725). The assay can be described thus: Inhibition of Syk phosphorylation in DNP-BSA-stimulated rat RBL2H3 cells by Western blotting. It counts as cell-based. As to conditions: RBL-2H3.
For assay [11], the system named is RBL-2H3. The assay can be described thus: Inhibition of JNK phosphorylation in DNP-BSA-stimulated rat RBL2H3 cells by Western blotting. Format: cell-based.
Assay [12] concerns RBL-2H3. The assay can be described thus: Antioxidant activity in IgE-sensitized rat RBL2H3 cells assessed as reduction in DNP-BSA-mediated intracellular ROS production at 50 uM after 30 mins by fluorimetry. It counts as functional, cell-based.

Activity calls are given as the source filed them. No cut-off for these calls is given here.

Sequence of Tyrosine-protein kinase SYK (Rattus norvegicus) (Q64725 whole entry, looked up): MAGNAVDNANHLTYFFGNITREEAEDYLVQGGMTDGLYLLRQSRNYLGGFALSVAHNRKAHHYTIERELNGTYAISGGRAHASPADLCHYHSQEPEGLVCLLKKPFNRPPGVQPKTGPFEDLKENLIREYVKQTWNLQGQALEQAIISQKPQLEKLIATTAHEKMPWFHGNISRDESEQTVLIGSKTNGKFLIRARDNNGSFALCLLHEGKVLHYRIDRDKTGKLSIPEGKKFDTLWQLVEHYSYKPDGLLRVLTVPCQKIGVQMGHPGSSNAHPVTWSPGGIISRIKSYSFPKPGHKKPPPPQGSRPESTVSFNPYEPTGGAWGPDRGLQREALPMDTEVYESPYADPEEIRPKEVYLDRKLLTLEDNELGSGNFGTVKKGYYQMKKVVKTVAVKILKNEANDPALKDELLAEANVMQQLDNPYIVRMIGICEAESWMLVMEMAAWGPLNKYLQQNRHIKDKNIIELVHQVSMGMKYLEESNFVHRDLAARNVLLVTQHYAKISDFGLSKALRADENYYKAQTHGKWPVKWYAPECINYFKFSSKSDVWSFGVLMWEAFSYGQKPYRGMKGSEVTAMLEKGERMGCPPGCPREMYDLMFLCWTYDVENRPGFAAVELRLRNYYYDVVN

Consider `O=C(/C=C/c1ccc(O)cc1)OC[C@H]1O[C@@H](Oc2c(-c3ccc(O)cc3)oc3cc(O)cc(O)c3c2=O)[C@H](O)[C@@H](O)[C@@H]1O`, for which the result in assay [1], in assay [8] and in [10] was inactive. In addition, the outcome in assay [2], in assay [4], in assay [5], in assay [7], in assay [9] and in assay [11] was Active. Besides, in [12], the outcome was Active. In addition, the ED50 in [3] is less than 100 µM. In addition, the inhibition entry in [6] was “Active”.
For `O=C(O[C@@H]1Cc2c(O)cc(O)cc2O[C@@H]1c1cc(O)c(O)c(O)c1)c1cc(O)c(O)c(O)c1`, the outcome in [1], in assay [8] and in [10] was inactive. In addition, the ED50 in assay [3] was 7 µM.
Take `O=c1c(O)c(-c2ccc(O)cc2)oc2cc(O)cc(O)c12`: the result in assay [1], in assay [2], in assay [4], in assay [5], in [7] and in assay [8] was Active. In addition, the outcome in [9], in assay [10] and in assay [11] was Active. In addition, the ED50 in assay [3] was less than 100 µM. For the same molecule, the inhibition result in [6] is “Active”.
`O=c1cc(-c2ccccc2)oc2cc(O)cc(O)c12`: the outcome in assay [1], in [7], in [8], in [9], in [10] and in assay [11] was inactive. In assay [3], the ED50 was less than 100 µM. Besides, the result in assay [4] and in assay [5] was Active. Also, the inhibition entry in assay [6] is “Active”.
As for `O=C1O[C@H]([C@@H](O)CO)C(O)=C1O`, the ED50 in [3] is 18 µM.
Consider `O=C(/C=C/c1ccccc1)Oc1cc(O)c2c(=O)cc(-c3ccccc3)oc2c1`, for which the result in assay [1], in assay [8] and in assay [10] was inactive. For the same molecule, the result in assay [2], in assay [4], in [5], in assay [7], in assay [9] and in [11] was Active. In addition, the result in assay [12] was Active. The ED50 in assay [3] was less than 100 µM. Also, in [6], the inhibition result is “Active”.
As for VITAMIN E, the ED50 in assay [3] was determined as 78 µM.
